Columns and labels:
[1] = tested on: NF-κB dependent transcription; test: NF-κB luciferase reporter in stably transfected A549 cells; format: cell-based, human
Description: (§1) The expression of inflammatory genes was then evaluated in cells transformed with luciferase reporter genes containing sites for transcription factors (Tf, Tfs). The A549 cells were stably transfected by routine methods with luciferase reporters containing the transcription factors NF-κB, TRE (AP-1, TPA responsive element) and CRE (cAMP responsive element). Luciferase activity of cell lysates resuspended in […] cell lysis buffer mixed (40 mml resuspended lysate: 40 mml assay reagent) was measured using the Luciferase Assay System (Promega), with emitted light measured by a Turner DesignsTD-20/20 luminometer (Steptech Instruments Ltd., Stevenage, U.K.)

[2] = tested on: CRE dependent transcription; test: CRE luciferase reporter in stably transfected A549 cells; format: cell-based, human
Description: as §1

EC50 ([1]; Homo sapiens, read-out: EC50 for inhibition of NF-κB dependent transcription): 16 ± 12 µM
EC50 ([2]; Homo sapiens, read-out: EC50 for inhibition of CRE dependent transcription): 3.4 ± 3 µM
SMILES: C[C@@H]1C[C@H]2[C@@H]3CCC4=CC(=O)C=C[C@]4(C)[C@@]3(F)[C@@H](O)C[C@]2(C)[C@@]1(O)C(=O)CO [Dexamethasone, dexamethasone, reference compound]
extent of inhibition of NF-κB dependent transcription [1]: 41%
extent of inhibition of CRE dependent transcription [2]: 62%

From patent US6878751B1, “Administration of resveratrol to treat inflammatory respiratory disorders” (Imperial College of Science Technology and Medicine, priority 2000, dated 2005)
